# Measured values published in PubChem BioAssay (NCI).
#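 48-hour exposure; five concentrations; linearly interpolated endpoints. The concentration for full growth arrest is given as TGI.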
# Columns and labels:
# Test in all cases: NCI-60 cell line screen, 48 h
# HCT-15 colon = tested on: HCT-15 colon
# 786-0 renal = tested on: 786-0 renal
# UACC-257 melanoma = tested on: UACC-257 melanoma
# HCC-2998 colon = tested on: HCC-2998 colon
# T-47D breast = tested on: T-47D breast
# MDA-N = tested on: MDA-N
# K-562 leukemia = tested on: K-562 leukemia
# SK-MEL-2 melanoma = tested on: SK-MEL-2 melanoma
# HOP-92 NSCLC = tested on: HOP-92 NSCLC
# M14 melanoma = tested on: M14 melanoma
# NCI-H460 lung = tested on: NCI-H460 lung
# NCI-H522 lung = tested on: NCI-H522 lung
# SW-620 colon = tested on: SW-620 colon
# HL-60(TB) leukemia = tested on: HL-60(TB) leukemia
# SNB-75 CNS = tested on: SNB-75 CNS
# MCF7 breast = tested on: MCF7 breast
# SR leukemia = tested on: SR leukemia
# BT-549 breast = tested on: BT-549 breast
# SK-MEL-28 melanoma = tested on: SK-MEL-28 melanoma
# OVCAR-3 ovarian = tested on: OVCAR-3 ovarian
# CAKI-1 renal = tested on: CAKI-1 renal
# UO-31 renal = tested on: UO-31 renal
# HT29 colon = tested on: HT29 colon
# HCT-116 colon = tested on: HCT-116 colon
# CCRF-CEM leukemia = tested on: CCRF-CEM leukemia
# KM12 colon = tested on: KM12 colon
# SF-539 CNS = tested on: SF-539 CNS
# NCI-H23 lung = tested on: NCI-H23 lung
# EKVX NSCLC = tested on: EKVX NSCLC
# A549 NSCLC = tested on: A549 NSCLC
# ACHN renal = tested on: ACHN renal
# RPMI-8226 leukemia = tested on: RPMI-8226 leukemia
# SF-295 CNS = tested on: SF-295 CNS
# RXF 393 renal = tested on: RXF 393 renal
# SN12C renal = tested on: SN12C renal
# OVCAR-5 ovarian = tested on: OVCAR-5 ovarian
# NCI/ADR-RES ovarian = tested on: NCI/ADR-RES ovarian
# LOX IMVI melanoma = tested on: LOX IMVI melanoma
# MALME-3M melanoma = tested on: MALME-3M melanoma
# MDA-MB-231 breast = tested on: MDA-MB-231 breast
# TK-10 renal = tested on: TK-10 renal
# OVCAR-8 ovarian = tested on: OVCAR-8 ovarian
# SF-268 CNS = tested on: SF-268 CNS
# SK-MEL-5 melanoma = tested on: SK-MEL-5 melanoma
# PC-3 prostate = tested on: PC-3 prostate
# MDA-MB-435 = tested on: MDA-MB-435
# A498 renal = tested on: A498 renal
# UACC-62 melanoma = tested on: UACC-62 melanoma
# SK-OV-3 ovarian = tested on: SK-OV-3 ovarian
# U251 CNS = tested on: U251 CNS
# OVCAR-4 ovarian = tested on: OVCAR-4 ovarian
# COLO 205 colon = tested on: COLO 205 colon
# SNB-19 CNS = tested on: SNB-19 CNS
# HS 578T breast = tested on: HS 578T breast
# NCI-H226 lung = tested on: NCI-H226 lung
# MOLT-4 leukemia = tested on: MOLT-4 leukemia
# DU-145 prostate = tested on: DU-145 prostate
# IGROV1 ovarian = tested on: IGROV1 ovarian
# HOP-62 NSCLC = tested on: HOP-62 NSCLC
smiles,measurement,setting,value
Nc1nc(Cl)cc(NCC2(CO)CC(Cc3ccccc3)C2)n1 (configuration not stated),TGI,HCT-15 colon,> 100 µM
same,TGI,786-0 renal,> 100 µM
same,TGI,UACC-257 melanoma,> 82.3 µM
same,TGI,HCC-2998 colon,> 88.6 µM
same,TGI,T-47D breast,> 65.4 µM
same,TGI,MDA-N,> 86.9 µM
same,TGI,K-562 leukemia,> 81.6 µM
same,TGI,SK-MEL-2 melanoma,> 72.5 µM
same,TGI,HOP-92 NSCLC,> 88.6 µM
same,TGI,M14 melanoma,37.1 µM
same,TGI,NCI-H460 lung,> 100 µM
same,TGI,NCI-H522 lung,> 100 µM
same,TGI,SW-620 colon,> 100 µM
same,TGI,HL-60(TB) leukemia,> 46.4 µM
same,TGI,SNB-75 CNS,> 100 µM
same,TGI,MCF7 breast,> 77.7 µM
same,TGI,SR leukemia,> 56.1 µM
same,TGI,BT-549 breast,> 80.5 µM
same,TGI,SK-MEL-28 melanoma,> 100 µM
same,TGI,OVCAR-3 ovarian,> 100 µM
same,TGI,CAKI-1 renal,> 100 µM
same,TGI,UO-31 renal,> 100 µM
same,TGI,HT29 colon,> 72.4 µM
same,TGI,HCT-116 colon,> 100 µM
same,TGI,CCRF-CEM leukemia,> 100 µM
same,TGI,KM12 colon,> 100 µM
same,TGI,SF-539 CNS,> 100 µM
same,TGI,NCI-H23 lung,> 100 µM
same,TGI,EKVX NSCLC,> 95.1 µM
same,TGI,A549 NSCLC,> 100 µM
same,TGI,ACHN renal,> 100 µM
same,TGI,RPMI-8226 leukemia,> 62.9 µM
same,TGI,SF-295 CNS,> 100 µM
same,TGI,RXF 393 renal,> 93.5 µM
same,TGI,SN12C renal,> 100 µM
same,TGI,OVCAR-5 ovarian,> 100 µM
same,TGI,NCI/ADR-RES ovarian,65.5 µM
same,TGI,LOX IMVI melanoma,> 100 µM
same,TGI,MALME-3M melanoma,> 100 µM
same,TGI,MDA-MB-231 breast,> 100 µM
same,TGI,TK-10 renal,> 96.5 µM
same,TGI,OVCAR-8 ovarian,> 100 µM
same,TGI,SF-268 CNS,> 31.6 µM
same,TGI,SK-MEL-5 melanoma,> 41.9 µM
same,TGI,PC-3 prostate,> 90.8 µM
same,TGI,MDA-MB-435,> 78.1 µM
same,TGI,A498 renal,78.7 µM
same,TGI,UACC-62 melanoma,> 100 µM
same,TGI,SK-OV-3 ovarian,> 100 µM
same,TGI,U251 CNS,> 100 µM
same,TGI,OVCAR-4 ovarian,> 100 µM
same,TGI,COLO 205 colon,> 59.6 µM
same,TGI,SNB-19 CNS,> 100 µM
same,TGI,HS 578T breast,> 100 µM
same,TGI,NCI-H226 lung,> 91.1 µM
same,TGI,MOLT-4 leukemia,> 71.4 µM
same,TGI,DU-145 prostate,> 100 µM
same,TGI,IGROV1 ovarian,> 100 µM
same,TGI,HOP-62 NSCLC,> 100 µM
CCOC(=O)C(SCCO)C(C(=O)OCC)n1cc(C)c(=O)[nH]c1=O (configuration not stated),TGI,HCT-15 colon,25.7 µM
same,TGI,786-0 renal,15.6 µM
same,TGI,UACC-257 melanoma,> 84.6 µM
same,TGI,HCC-2998 colon,> 78.9 µM
same,TGI,T-47D breast,> 100 µM
same,TGI,MDA-N,64.4 µM
same,TGI,K-562 leukemia,15.8 µM
same,TGI,SK-MEL-2 melanoma,51.1 µM
same,TGI,HOP-92 NSCLC,71.9 µM
same,TGI,M14 melanoma,25 µM
same,TGI,NCI-H460 lung,> 100 µM
same,TGI,NCI-H522 lung,17.6 µM
same,TGI,SW-620 colon,> 43.1 µM
same,TGI,HL-60(TB) leukemia,4.88 µM
same,TGI,SNB-75 CNS,> 100 µM
same,TGI,MCF7 breast,43.5 µM
same,TGI,SR leukemia,35.5 µM
same,TGI,BT-549 breast,> 85.1 µM
same,TGI,SK-MEL-28 melanoma,> 65.6 µM
same,TGI,OVCAR-3 ovarian,51.7 µM
same,TGI,CAKI-1 renal,18.2 µM
same,TGI,UO-31 renal,> 62.8 µM
same,TGI,HT29 colon,32.2 µM
same,TGI,HCT-116 colon,22.6 µM
same,TGI,CCRF-CEM leukemia,8.1 µM
same,TGI,KM12 colon,> 63.1 µM
same,TGI,SF-539 CNS,> 65.3 µM
same,TGI,NCI-H23 lung,> 78.7 µM
same,TGI,EKVX NSCLC,> 100 µM
same,TGI,A549 NSCLC,> 100 µM
same,TGI,ACHN renal,> 57.1 µM
same,TGI,RPMI-8226 leukemia,44.4 µM
same,TGI,SF-295 CNS,> 100 µM
same,TGI,RXF 393 renal,43.7 µM
same,TGI,SN12C renal,> 45.8 µM
same,TGI,OVCAR-5 ovarian,32.1 µM
same,TGI,NCI/ADR-RES ovarian,> 86.6 µM
same,TGI,LOX IMVI melanoma,19.2 µM
same,TGI,MALME-3M melanoma,38.6 µM
same,TGI,MDA-MB-231 breast,48.9 µM
same,TGI,TK-10 renal,> 82.5 µM
same,TGI,OVCAR-8 ovarian,> 62.7 µM
same,TGI,SF-268 CNS,> 100 µM
same,TGI,SK-MEL-5 melanoma,> 70.6 µM
same,TGI,PC-3 prostate,34.6 µM
same,TGI,MDA-MB-435,> 56.1 µM
same,TGI,A498 renal,47.5 µM
same,TGI,UACC-62 melanoma,40 µM
same,TGI,SK-OV-3 ovarian,> 100 µM
same,TGI,U251 CNS,36.5 µM
same,TGI,OVCAR-4 ovarian,> 74.7 µM
same,TGI,COLO 205 colon,23.3 µM
same,TGI,SNB-19 CNS,> 100 µM
same,TGI,HS 578T breast,> 100 µM
same,TGI,NCI-H226 lung,> 61.4 µM
same,TGI,MOLT-4 leukemia,42.1 µM
same,TGI,DU-145 prostate,> 100 µM
same,TGI,IGROV1 ovarian,> 65.4 µM
same,TGI,HOP-62 NSCLC,> 85.6 µM
CN(C)CC1CN(C(=O)Nc2ccccc2)C(=N)O1 (configuration not stated),TGI,HCT-15 colon,> 100 µM
same,TGI,786-0 renal,> 100 µM
same,TGI,UACC-257 melanoma,> 100 µM
same,TGI,HCC-2998 colon,> 100 µM
same,TGI,T-47D breast,> 100 µM
same,TGI,MDA-N,> 100 µM
same,TGI,K-562 leukemia,> 100 µM
same,TGI,SK-MEL-2 melanoma,> 100 µM
same,TGI,HOP-92 NSCLC,> 100 µM
same,TGI,M14 melanoma,> 100 µM
same,TGI,NCI-H460 lung,> 100 µM
same,TGI,NCI-H522 lung,> 100 µM
same,TGI,SW-620 colon,> 100 µM
same,TGI,HL-60(TB) leukemia,> 100 µM
same,TGI,SNB-75 CNS,> 100 µM
same,TGI,MCF7 breast,> 100 µM
same,TGI,SR leukemia,> 100 µM
same,TGI,BT-549 breast,> 100 µM
same,TGI,SK-MEL-28 melanoma,> 100 µM
same,TGI,OVCAR-3 ovarian,> 100 µM
same,TGI,CAKI-1 renal,> 100 µM
same,TGI,UO-31 renal,> 100 µM
same,TGI,HT29 colon,> 100 µM
same,TGI,HCT-116 colon,> 100 µM
same,TGI,CCRF-CEM leukemia,> 100 µM
same,TGI,KM12 colon,> 100 µM
same,TGI,SF-539 CNS,> 100 µM
same,TGI,NCI-H23 lung,> 100 µM
same,TGI,EKVX NSCLC,> 100 µM
same,TGI,A549 NSCLC,> 100 µM
same,TGI,ACHN renal,> 100 µM
same,TGI,RPMI-8226 leukemia,> 100 µM
same,TGI,SF-295 CNS,> 100 µM
same,TGI,RXF 393 renal,> 100 µM
same,TGI,SN12C renal,> 100 µM
same,TGI,OVCAR-5 ovarian,> 100 µM
same,TGI,NCI/ADR-RES ovarian,> 100 µM
same,TGI,LOX IMVI melanoma,> 100 µM
same,TGI,MALME-3M melanoma,> 100 µM
same,TGI,MDA-MB-231 breast,> 100 µM
same,TGI,TK-10 renal,> 100 µM
same,TGI,OVCAR-8 ovarian,> 100 µM
same,TGI,SF-268 CNS,> 100 µM
same,TGI,SK-MEL-5 melanoma,> 100 µM
same,TGI,PC-3 prostate,> 100 µM
same,TGI,MDA-MB-435,> 100 µM
same,TGI,A498 renal,> 100 µM
same,TGI,UACC-62 melanoma,> 100 µM
same,TGI,SK-OV-3 ovarian,> 100 µM
same,TGI,U251 CNS,> 100 µM
same,TGI,OVCAR-4 ovarian,> 100 µM
same,TGI,COLO 205 colon,> 100 µM
same,TGI,SNB-19 CNS,> 100 µM
same,TGI,HS 578T breast,> 100 µM
same,TGI,NCI-H226 lung,> 100 µM
same,TGI,MOLT-4 leukemia,> 100 µM
same,TGI,DU-145 prostate,> 100 µM
same,TGI,IGROV1 ovarian,> 100 µM
same,TGI,HOP-62 NSCLC,> 100 µM
